Assay [1] concerns E. coli. Put plainly: MIC by broth microdilution (CLSI), E. coli. It counts as cell-based. The note with it: broth microdilution, cation adjusted Mueller-Hinton Broth, 35° C., 18-24 h; for MIC: Escherichia coli, read-out: E. coli MIC. Here is the method:
(§1) Minimal inhibitory concentrations (MIC) were determined by the broth microdilution method in accordance with the Clinical and Laboratory Standards Institute (CLSI) guidelines. In brief, organism suspensions were adjusted to a 0.5 McFarland standard to yield a final inoculum between 3×10^5 and 7×10^5 colony-forming units (CFU)/mL. Drug dilutions and inocula were made in sterile, cation adjusted Mueller-Hinton Broth (Beckton Dickinson). An inoculum volume of 100 μL was added to wells containing 100 μL of broth with 2-fold serial dilutions of drug. All inoculated microdilution trays were incubated in ambient air at 35° C. for 18-24 h. Following incubation, the lowest concentration of the drug that prevented visible growth (OD600 nm<0.05) was recorded as the MIC. Performance of the assay was monitored by the use of laboratory quality-control strains and levofloxacin, a compound with a defined MIC spectrum, in accordance with CLSI guidelines.
(In general: Dilution methods test growth across graded concentrations, often in twofold steps.)

The test system of assay [2] is K. pneumoniae. Description: MIC by broth microdilution (CLSI), K. pneumoniae. It counts as cell-based. The conditions noted are these: broth microdilution, cation adjusted Mueller-Hinton Broth, 35° C., 18-24 h; for MIC: Klebsiella pneumoniae, read-out: K. pneumoniae MIC. Here is the method:
as §1

The results in this text go back to patent US20220081421A1, “ANTIBACTERIAL COMPOUNDS” (Forge Therapeutics, Inc., priority 2018, published 2022).

In brackets after ≈: the same amount, converted by molar mass.

Regarding `O=c1ccoc(CNc2ccc(C#Cc3ccc(CN4CCOCC4)cc3)cc2)c1O` [Compound 109, 3-hydroxy-2-(((4-((4-(morpholinomethyl)phenyl)ethynyl)phenyl)amino)methyl)-4H-pyran-4-one], the minimal inhibitory concentration (MIC) (commonly the least concentration at which growth counts as inhibited) in assay [1] lay in the range of 1 to 8 mg/L (≈ 2.4 to 19.2 µM); in assay [2], 8 to 32 mg/L (≈ 19.2 to 76.8 µM).

In the case of `C=CCNCC(Cc1ccc(C#CC#Cc2ccccc2N)cc1)c1nc[nH]c(=O)c1O` (stereo not drawn) [Compound 36, 6-(1-(allylamino)-3-(4-((2-aminophenyl)buta-1,3-diyn-1-yl)phenyl)propan-2-yl)-5-hydroxypyrimidin-4(3H)-one], the results for the MIC in assay [1] and in assay [2] were 8 to 32 mg/L (≈ 18.8 to 75.4 µM) and more than 32 mg/L, respectively.

Take `O=c1[nH]cnc(CCc2ccc(C#Cc3ccc(CNC4CC(O)C4)cc3)cn2)c1O` (stereo not drawn) [Compound 15, 5-hydroxy-6-(2-(5-((4-(((3-hydroxycyclobutyl)amino)methyl)phenyl)ethynyl)pyridin-2-yl)ethyl)pyrimidin-4(3H)-one]: the results for the MIC in assay [1] and in assay [2] were 8 to 32 mg/L (≈ 19.2 to 76.8 µM) and more than 32 mg/L, respectively.

For `CO/N=C(\C)C(Cc1ccc(C#Cc2ccc(CN3CCOCC3)cc2)cc1)c1ncnc(O)c1O` (stereo not drawn) [Compound 116, (E)-3-(5,6-dihydroxypyrimidin-4-yl)-4-(4-((4-(morpholinomethyl)phenyl)ethynyl)phenyl)butan-2-one O-methyl oxime], the MIC in assay [1] was 8 to 32 mg/L (≈ 16.4 to 65.8 µM); in assay [2] it was more than 32 mg/L.

`CC(Cc1ccc(C#Cc2ccc(CN3CCOCC3)cc2)cc1)c1nc[nH]c(=O)c1O` (stereo not drawn) [Compound 104, 5-hydroxy-6-(1-(4-((4-(morpholinomethyl)phenyl)ethynyl)phenyl)propan-2-yl)pyrimidin-4(3H)-one]: the MIC in assay [1] and in assay [2] was 1 to 8 mg/L (≈ 2.33 to 18.6 µM) throughout.

For the molecule `C=C(Cc1ccc(C#CC#Cc2ccc(C(=O)N3CCN(C)CC3)cc2)cc1)c1nc[nH]c(=O)c1O` [Compound 33, 5-hydroxy-6-(3-(4-((4-(4-methylpiperazine-1-carbonyl)phenyl)buta-1,3-diyn-1-yl)phenyl)prop-1-en-2-yl)pyrimidin-4(3H)-one], the MIC in assay [1] and in assay [2] was 1 to 8 mg/L (≈ 2.09 to 16.7 µM) in each case.

For the molecule `C=CCNCC(Cc1ccc(C#CC#Cc2cnc(C)nc2)cc1)c1nc[nH]c(=O)c1O` (stereo not drawn) [Compound 37, 6-(1-(allylamino)-3-(4-((2-methylpyrimidin-5-yl)buta-1,3-diyn-1-yl)phenyl)propan-2-yl)-5-hydroxypyrimidin-4(3H)-one], the MIC in assay [1] is 8 to 32 mg/L (≈ 18.8 to 75.2 µM); in assay [2], more than 32 mg/L.

As for `O=c1[nH]cnc(CCN2CCC(C#Cc3ccc(CN4CCOCC4)cc3)CC2)c1O` [Compound 78, 5-hydroxy-6-(2-(4-((4-(morpholinomethyl)phenyl)ethynyl)piperidin-1-yl)ethyl)pyrimidin-4(3H)-one], the MIC in assay [1] was 8 to 32 mg/L (≈ 18.9 to 75.7 µM); in assay [2] it was more than 32 mg/L.

As to `Cc1ncc(C#Cc2ccc(CC(C(=O)NCC(F)F)c3nc[nH]c(=O)c3O)cc2)cn1` (stereo not drawn) [Compound 25, N-(2,2-difluoroethyl)-2-(5-hydroxy-6-oxo-1,6-dihydropyrimidin-4-yl)-3-(4-((2-methylpyrimidin-5-yl)ethynyl)phenyl)propanamide], the MIC in assay [1] and in assay [2] was more than 32 mg/L throughout.

For the molecule `N#CCC(Cc1ccc(C#Cc2ccc(CN[C@H]3CCOC3)cc2)cc1)c1nc[nH]c(=O)c1O` (stereo partly drawn) [Compound 107, 3-(5-hydroxy-6-oxo-1,6-dihydropyrimidin-4-yl)-4-(4-((4-((((S)-tetrahydrofuran-3-yl)amino)methyl)phenyl)ethynyl)phenyl)butanenitrile], the results for the MIC in assay [1] and in assay [2] were 1 to 8 mg/L (≈ 2.2 to 17.6 µM) and 8 to 32 mg/L (≈ 17.6 to 70.4 µM), respectively.

Turning to `O=C(NCC(F)F)C(Cc1ccc(C#Cc2cnc(C(F)(F)F)nc2)cc1)c1nc[nH]c(=O)c1O` (stereo not drawn) [Compound 27, N-(2,2-difluoroethyl)-2-(5-hydroxy-6-oxo-1,6-dihydropyrimidin-4-yl)-3-(4-((2-(trifluoromethyl)pyrimidin-5-yl)ethynyl)phenyl) propanamide], the MIC in assay [1] and in assay [2] was more than 32 mg/L throughout.

`O=C(NCC(F)F)C(Cc1ccc(-c2ccc(-n3cccn3)cc2)cc1)c1nc[nH]c(=O)c1O` (stereo not drawn) [Compound 38, 3-(4′-(1H-pyrazol-1-yl)-[1,1-biphenyl]-4-yl)-N-(2,2-difluoroethyl)-2-(5-hydroxy-6-oxo-1,6-dihydropyrimidin-4-yl)propanamide]: the MIC in assay [1] and in assay [2] was more than 32 mg/L each time.

In the case of `O=C(NCCc1nc[nH]c(=O)c1O)n1cc(C#Cc2ccc(CN3CCOCC3)cc2)cc1CO` [Compound 79, N-(2-(5-hydroxy-6-oxo-1,6-dihydropyrimidin-4-yl)ethyl)-2-(hydroxymethyl)-4-((4-(morpholinomethyl)phenyl)ethynyl)-1H-pyrrole-1-carboxamide], the MIC was 8 to 32 mg/L (≈ 16.8 to 67 µM) in assay [1] and more than 32 mg/L in assay [2].

As for `O=c1[nH]cnc(CCc2ccc(C#Cc3ccncc3)cc2)c1O` [Compound 18, 5-hydroxy-6-(4-(pyridin-4-ylethynyl)phenethyl) pyrimidin-4(3H)-one], the MIC is less than 1 mg/L in assay [1] and more than 32 mg/L in assay [2].

For `O=c1[nH]cnc(C2(Cn3ccc(C#Cc4ccc(CN5CCOCC5)cc4)cc3=O)CC2)c1O` [Compound 43, 5-hydroxy-6-(1-((4-((4-(morpholinomethyl)phenyl)ethynyl)-2-oxopyridin-1(2H)-yl)methyl)cyclopropyl) pyrimidin-4(3H)-one], the MIC in assay [1] and in assay [2] was more than 32 mg/L in each case.

For `C=C(Cc1ccc(C#Cc2ccc(CN3CCOCC3)cc2)cc1)c1nc[nH]c(=O)c1O` [Compound 105, 5-hydroxy-6-(3-(4-((4-(morpholinomethyl)phenyl)ethynyl)phenyl)prop-1-en-2-yl)pyrimidin-4(3H)-one], the minimum inhibitory concentration (MIC) in assay [1] and in assay [2] was 1 to 8 mg/L (≈ 2.34 to 18.7 µM) throughout.

`O=c1[nH]cnc(CCc2ccc(C#Cc3ccc(CN4CCOCC4)cc3)cn2)c1O` [Compound 19, 5-hydroxy-6-(2-(5-((4-(morpholinomethyl)phenyl)ethynyl)pyridin-2-yl)ethyl)pyrimidin-4(3H)-one]: the MIC is less than 1 mg/L in assay [1] and 1 to 8 mg/L (≈ 2.4 to 19.2 µM) in assay [2].

In the case of `CC(C)C#CC#Cc1ccc(CC(CNCCF)c2nc[nH]c(=O)c2O)cc1` (stereo not drawn) [Compound 66, 6-(1-((2-fluoroethyl)amino)-3-(4-(5-methylhexa-1,3-diyn-1-yl)phenyl)propan-2-yl)-5-hydroxypyrimidin-4(3H)-one], the MIC in assay [1] and in assay [2] was 8 to 32 mg/L (≈ 21 to 83.9 µM) throughout.

Turning to `O=c1[nH]cnc(C(CNCCF)Cc2ccc(C#CC#CC3CC3)cc2)c1O` (stereo not drawn) [Compound 68, 6-(1-(4-(cyclopropylbuta-1,3-diyn-1-yl)phenyl)-3-((2-fluoroethyl)amino)propan-2-yl)-5-hydroxypyrimidin-4(3H)-one], the MIC in assay [1] and in assay [2] was more than 32 mg/L each time.

In the case of `O=C(OC1CCSC1)C(Cc1ccc(C#Cc2ccc(CN3CCOCC3)cc2)cc1)c1nc[nH]c(=O)c1O` (stereo not drawn) [Compound 115, tetrahydrothiophen-3-yl 2-(5-hydroxy-6-oxo-1,6-dihydropyrimidin-4-yl)-3-(4-((4-(morpholinomethyl)phenyl)ethynyl)phenyl)propanoate], the MIC in assay [1] was 8 to 32 mg/L (≈ 14.7 to 58.6 µM); in assay [2] it was more than 32 mg/L.

As to `OCC(Cc1nncc(O)c1O)c1ccc(C#Cc2ccc(CN[C@H]3CCOC3)cc2)cc1` (single isomer, unassigned) [Compound 102], the “E. coli MIC” value in assay [1] was “C (C: >8.0 μg/mL to ≤32 μg/mL)”. In assay [2], the “K. pneumoniae MIC” value is on record as “C (C: >8.0 μg/mL to ≤32 μg/mL)”.

With `N#Cc1ccc(-c2ccc(CC(C(=O)NCC(F)F)c3nc[nH]c(=O)c3O)cc2)cc1` (stereo not drawn) [Compound 39, 3-(4′-cyano-[1,1′-biphenyl]-4-yl)-N-(2,2-difluoroethyl)-2-(5-hydroxy-6-oxo-1,6-dihydropyrimidin-4-yl)propanamide], the MIC in assay [1] and in assay [2] was more than 32 mg/L in each case.

With `O=c1cccc(CC(CO)c2ccc(C#Cc3ccc(CN4CCOCC4)cc3)cc2)n1O` (stereo not drawn) [Compound 138, 1-hydroxy-6-(3-hydroxy-2-(4-((4-(morpholinomethyl)phenyl)ethynyl)phenyl)propyl)pyridin-2(1H)-one], the MIC in assay [1] and in assay [2] was 8 to 32 mg/L (≈ 18 to 72 µM) throughout.

`C=CCNCC(Cc1ccc(C#CC#Cc2cnn(C)c2)cc1)c1nc[nH]c(=O)c1O` (stereo not drawn) [Compound 62, 6-(1-(allylamino)-3-(4-((1-methyl-1H-pyrazol-4-yl)buta-1,3-diyn-1-yl)phenyl)propan-2-yl)-5-hydroxypyrimidin-4(3H)-one]: the MIC in assay [1] fell in the range of 1 to 8 mg/L (≈ 2.42 to 19.3 µM); in assay [2] it was 8 to 32 mg/L (≈ 19.3 to 77.4 µM).

For the molecule `O=c1[nH]cnc(C(CCl)Cc2ccc(C#Cc3ccc(CN4CCOCC4)cc3)cc2)c1O` (stereo not drawn) [Compound 113, 6-(1-chloro-3-(4-((4-(morpholinomethyl)phenyl)ethynyl)phenyl)propan-2-yl)-5-hydroxypyrimidin-4(3H)-one], the MIC in assay [1] and in assay [2] was 8 to 32 mg/L (≈ 17.2 to 69 µM) each time.

As for `O=c1[nH]cnc(CCn2ccc(C#Cc3ccc(CN4CCOCC4)cc3)cc2=O)c1O` [Compound 23, 5-hydroxy-6-(2-(4-((4-(morpholinomethyl)phenyl)ethynyl)-2-oxopyridin-1(2H)-yl)ethyl)pyrimidin-4(3H)-one], the results for the MIC in assay [1] and in assay [2] were less than 1 mg/L and 8 to 32 mg/L (≈ 18.5 to 74 µM), respectively.

As for `C=CCNCC(Cc1ccc(C#CC#Cc2ccc(C(=O)O)cc2)cc1)c1nc[nH]c(=O)c1O` (stereo not drawn) [Compound 35, 4-((4-(3-(allylamino)-2-(5 hydroxy-6-oxo-1,6-dihydropyrimidin-4-yl)propyl)phenyl)buta-1,3-diyn-1-yl)benzoic acid], the MIC was 1 to 8 mg/L (≈ 2.21 to 17.6 µM) in assay [1] and more than 32 mg/L in assay [2].
